Reference: PubChem BioAssay AID1919009 (Molecular Pharmacology Branch, DTP, NCI, 2023)
Blank lines part the entries; values can stand above or below the compound they belong to.

System: K24384-001-R-PDC complex spheroid growth
Assay: Anticancer human tumor K24384-001-R-PDC patient-derived pancreatic adenocarcinoma cell line growth inhibition [AhR]
Settings: for IC50: curve of first compound; for viability, T/C: stronger effect = lower value
How it was run: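 Spheroids combined tumor cells with HUVEC endothelial cells and human MSCs as stroma. AhR antagonists were paired with standard or investigational drugs, each dosed in half-log steps down from near clinical Cmax, or from 10 microM where Cmax was unknown.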

[1] = second compound 0.1 µM, first compound 0.0316 µM
[2] = second compound 0.1 µM, first compound 0.1 µM
[3] = second compound 0.1 µM, first compound 0.316 µM
[4] = second compound 0.1 µM, first compound 1 µM
[5] = second compound 0.1 µM, first compound 3.16 µM
[6] = second compound 0.1 µM, first compound 10 µM
[7] = second compound 0.316 µM, first compound 0.0316 µM
[8] = second compound 0.316 µM, first compound 0.1 µM
[9] = second compound 0.316 µM, first compound 0.316 µM
[10] = second compound 0.316 µM, first compound 1 µM
[11] = second compound 0.316 µM, first compound 3.16 µM
[12] = second compound 0.316 µM, first compound 10 µM
[13] = second compound 1 µM, first compound 0.0316 µM
[14] = second compound 1 µM, first compound 0.1 µM
[15] = second compound 1 µM, first compound 0.316 µM
[16] = second compound 1 µM, first compound 1 µM
[17] = second compound 1 µM, first compound 3.16 µM
[18] = second compound 1 µM, first compound 10 µM
[19] = second compound 3.16 µM, first compound 0.0316 µM
[20] = second compound 3.16 µM, first compound 0.1 µM
[21] = second compound 3.16 µM, first compound 0.316 µM
[22] = second compound 3.16 µM, first compound 1 µM
[23] = second compound 3.16 µM, first compound 3.16 µM
[24] = second compound 3.16 µM, first compound 10 µM
[25] = second compound 10 µM, first compound 0.0316 µM
[26] = second compound 10 µM, first compound 0.1 µM
[27] = second compound 10 µM, first compound 0.316 µM
[28] = second compound 10 µM, first compound 1 µM
[29] = second compound 10 µM, first compound 3.16 µM
[30] = second compound 10 µM, first compound 10 µM
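Wherever viability, T/C is given: percent of DMSO vehicle-treated spheroid viability set as 100%.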

IC50 (second compound 0.1 µM): 109 nM | IC50 (second compound 0.316 µM): 168 nM | IC50 (second compound 1 µM): 164 nM | IC50 (second compound 3.16 µM): 184 nM | IC50 (second compound 10 µM): 493 nM
SMILES: Nc1ccn(C2OC(CO)C(O)C2(F)F)c(=O)n1 (stereo not given) + Cc1ccccc1N=Nc1ccc(NC(=O)c2ccnn2C)c(C)c1
viability, T/C [1]: 67.6% | viability, T/C [2]: 51.8% | viability, T/C [3]: 35.9% | viability, T/C [4]: 29.9% | viability, T/C [5]: 22.9% | viability, T/C [6]: 20.6% | viability, T/C [7]: 61.8% | viability, T/C [8]: 53.7% | viability, T/C [9]: 44.5% | viability, T/C [10]: 28% | viability, T/C [11]: 19.2% | viability, T/C [12]: 19.7% | viability, T/C [13]: 67.6% | viability, T/C [14]: 57.4% | viability, T/C [15]: 40.6% | viability, T/C [16]: 25.8% | viability, T/C [17]: 21.2% | viability, T/C [18]: 15.1% | viability, T/C [19]: 58% | viability, T/C [20]: 60.4% | viability, T/C [21]: 41.9% | viability, T/C [22]: 25.9% | viability, T/C [23]: 20.5% | viability, T/C [24]: 17.1% | viability, T/C [25]: 69.3% | viability, T/C [26]: 63.2% | viability, T/C [27]: 60% | viability, T/C [28]: 35.3% | viability, T/C [29]: 28.7% | viability, T/C [30]: 20.1%

IC50 (second compound 0.1 µM): 2350 nM | IC50 (second compound 0.316 µM): 2440 nM | IC50 (second compound 1 µM): 2260 nM | IC50 (second compound 3.16 µM): 2270 nM | IC50 (second compound 10 µM): 2560 nM
SMILES: O=C(C=Cc1cccc(S(=O)(=O)Nc2ccccc2)c1)NO + Cc1ccccc1N=Nc1ccc(NC(=O)c2ccnn2C)c(C)c1
viability, T/C [1]: 137% | viability, T/C [2]: 128% | viability, T/C [3]: 126% | viability, T/C [4]: 92.2% | viability, T/C [5]: 35.2% | viability, T/C [6]: 6.57% | viability, T/C [7]: 135% | viability, T/C [8]: 144% | viability, T/C [9]: 121% | viability, T/C [10]: 107% | viability, T/C [11]: 32.6% | viability, T/C [12]: 6.91% | viability, T/C [13]: 136% | viability, T/C [14]: 135% | viability, T/C [15]: 126% | viability, T/C [16]: 87% | viability, T/C [17]: 35.1% | viability, T/C [18]: 6.47% | viability, T/C [19]: 102% | viability, T/C [20]: 127% | viability, T/C [21]: 123% | viability, T/C [22]: 86.5% | viability, T/C [23]: 35.9% | viability, T/C [24]: 5.9% | viability, T/C [25]: 128% | viability, T/C [26]: 128% | viability, T/C [27]: 115% | viability, T/C [28]: 89% | viability, T/C [29]: 41.1% | viability, T/C [30]: 7.02%

IC50 (second compound 0.1 µM): > 10000 nM | IC50 (second compound 0.316 µM): > 10000 nM | IC50 (second compound 1 µM): > 10000 nM | IC50 (second compound 3.16 µM): > 10000 nM | IC50 (second compound 10 µM): > 10000 nM
SMILES: O=C(c1cc(Cc2n[nH]c(=O)c3ccccc23)ccc1F)N1CCN(C(=O)C2CC2)CC1 + Cc1ccccc1N=Nc1ccc(NC(=O)c2ccnn2C)c(C)c1
viability, T/C [1]: 86.1% | viability, T/C [2]: 94.5% | viability, T/C [3]: 99.4% | viability, T/C [4]: 83.3% | viability, T/C [5]: 75.8% | viability, T/C [6]: 79.2% | viability, T/C [7]: 99.9% | viability, T/C [8]: 97.2% | viability, T/C [9]: 79.4% | viability, T/C [10]: 86.2% | viability, T/C [11]: 85.8% | viability, T/C [12]: 58% | viability, T/C [13]: 89.9% | viability, T/C [14]: 109% | viability, T/C [15]: 77.4% | viability, T/C [16]: 81.1% | viability, T/C [17]: 66.2% | viability, T/C [18]: 63.2% | viability, T/C [19]: 75.9% | viability, T/C [20]: 80.6% | viability, T/C [21]: 83.2% | viability, T/C [22]: 72.4% | viability, T/C [23]: 60.3% | viability, T/C [24]: 51.6% | viability, T/C [25]: 101% | viability, T/C [26]: 84.1% | viability, T/C [27]: 95.1% | viability, T/C [28]: 72.9% | viability, T/C [29]: 65.2% | viability, T/C [30]: 65.8%
